Measurements reported in patent US8247211B2, “Glycopeptide antibiotics” (American Cyanamid Company, priority 2001, dated 2012).
Converted amounts (≈) assume the structure as drawn.

Key:
Assay in all cases: In vitro antibacterial evaluation: minimum inhibitory concentration (MIC), broth dilution method
Assay type in all cases: cell-based
Streptococcus sp. = test system: Streptococcus sp.
Experimental: (§1) The minimum inhibitory concentration (MIC), the lowest concentration of the antibiotic which inhibits growth of the test organism, is determined by the broth dilution method using Muller-Hinton II […] (Baltimore Biological Laboratories) following the recommendations of the National Committee for Clinical Laboratory Standards [Methods for dilution antimicrobial susceptibility tests for bacteria that grow aerobically, approved standard M7-A2, National Committee for Clinical Laboratory Standards, Villanova, Pa].
(§2) An inoculum level of 5×10^5 CFU/mL, and a range of antibiotic concentrations (64-0.06 μg/mL) is used. […] The test organisms include a spectrum of Gram-positive bacteria comprised of Staphylococcus sp., Streptococcus sp. and Enterococcus sp. These organisms include recent clinical isolates that are resistant to methicillin, penicillin and/or vancomycin.

Staphylococcus sp. = conditions: broth dilution, 18 hours at 35° C.
Experimental: as §1, §2

Enterococcus sp. = test system: Enterococcus sp.
Experimental: as §1, §2

Escherichia coli = test system: Escherichia coli
Experimental: as §1, §2

CSc1ccc(C2OCC3OC(OC4C(CO)OC(Oc5ccc(CC6NC(=O)C(C(C)c7ccccc7)NC(=O)CNC(=O)C(CO)NC(=O)C(C(O)C7CNC(=N)N7C7OC(CO)C(O)C(O)C7O)NC(=O)C(C(O)C7CNC(=N)N7)NC6=O)cc5)C(O)C4O)C(O)C(O)C3O2)cc1 (stereo not shown) [Example 144]
MIC Streptococcus pneumoniae (ATCC 6301) (Streptococcus sp.; strain ATCC 6301): <0.06 µg/mL | MIC Streptococcus pneumoniae (GC 1894) (Streptococcus sp.; strain GC 1894): <0.06 µg/mL | MIC Streptococcus pyogenes (GC 4563) (Streptococcus sp.; strain GC 4563): <0.06 µg/mL | MIC Streptococcus agalactiae (GC 4564) (Streptococcus sp.; strain GC 4564): <0.06 µg/mL | MIC Streptococcus pneumoniae (GC 4565) (Streptococcus sp.; strain GC 4565): <0.06 µg/mL | MIC Coagulase Negative Staphylococcus (GC 4547) (Staphylococcus sp.; 5×10^5 CFU/mL): 1 µg/mL (≈ 0.7 µM) | MIC Coagulase Negative Staphylococcus (GC 4548) (Staphylococcus sp.; 5×10^5 CFU/mL): 0.25 µg/mL (≈ 0.175 µM) | MIC Coagulase Negative Staphylococcus (GC 4549) (Staphylococcus sp.; 5×10^5 CFU/mL): 0.12 µg/mL (≈ 0.0839 µM) | MIC Coagulase Negative Staphylococcus (GC 4551) (Staphylococcus sp.; 5×10^5 CFU/mL): 0.5 µg/mL (≈ 0.35 µM) | MIC Coagulase Negative Staphylococcus (GC 6257) (Staphylococcus sp.; 5×10^5 CFU/mL): 0.25 µg/mL (≈ 0.175 µM) | MIC Staphylococcus aureus (ATCC 29213) (Staphylococcus sp.; 5×10^5 CFU/mL): 2 µg/mL (≈ 1.4 µM) | MIC Staphylococcus aureus (GC 1131) (Staphylococcus sp.; 5×10^5 CFU/mL): 1 µg/mL (≈ 0.7 µM) | MIC Staphylococcus aureus (GC 3051) (Staphylococcus sp.; 5×10^5 CFU/mL): 1 µg/mL (≈ 0.7 µM) | MIC Staphylococcus aureus (GC 3053) (Staphylococcus sp.; 5×10^5 CFU/mL): 1 µg/mL (≈ 0.7 µM) | MIC Staphylococcus aureus (GC 4541) (Staphylococcus sp.; 5×10^5 CFU/mL): 0.5 µg/mL (≈ 0.35 µM) | MIC Staphylococcus aureus (GC 4542) (Staphylococcus sp.; 5×10^5 CFU/mL): 0.5 µg/mL (≈ 0.35 µM) | MIC Staphylococcus aureus (GC 4544) (Staphylococcus sp.; 5×10^5 CFU/mL): 4 µg/mL (≈ 2.8 µM) | MIC Staphylococcus aureus (GC 4545) (Staphylococcus sp.; 5×10^5 CFU/mL): 1 µg/mL (≈ 0.7 µM) | MIC Staphylococcus aureus-SMITH (GC 4543) (Staphylococcus sp.; 5×10^5 CFU/mL): 1 µg/mL (≈ 0.7 µM) | MIC Staphylococcus haemolyticus (GC 4546) (Staphylococcus sp.; 5×10^5 CFU/mL): 1 µg/mL (≈ 0.7 µM) | MIC Staphylococcus aureus (ATCC 29213) (Staphylococcus sp.; strain ATCC 29213): 2 µg/mL (≈ 1.4 µM) | MIC Staphylococcus aureus (GC 1131) (Staphylococcus sp.; strain GC 1131): 1 µg/mL (≈ 0.7 µM) | MIC Staphylococcus aureus (GC 3051) (Staphylococcus sp.; strain GC 3051): 1 µg/mL (≈ 0.7 µM) | MIC Staphylococcus aureus (GC 3053) (Staphylococcus sp.; strain GC 3053): 1 µg/mL (≈ 0.7 µM) | MIC Staphylococcus aureus (GC 4541) (Staphylococcus sp.; strain GC 4541): 0.5 µg/mL (≈ 0.35 µM) | MIC Staphylococcus aureus (GC 4542) (Staphylococcus sp.; strain GC 4542): 0.5 µg/mL (≈ 0.35 µM) | MIC Staphylococcus aureus-SMITH (GC 4543) (Staphylococcus sp.; strain GC 4543): 1 µg/mL (≈ 0.7 µM) | MIC Staphylococcus aureus (GC 4544) (Staphylococcus sp.; strain GC 4544): 4 µg/mL (≈ 2.8 µM) | MIC Staphylococcus aureus (GC 4545) (Staphylococcus sp.; strain GC 4545): 1 µg/mL (≈ 0.7 µM) | MIC Staphylococcus haemolyticus (GC 4546) (Staphylococcus sp.; strain GC 4546): 1 µg/mL (≈ 0.7 µM) | MIC Coagulase Negative Staphylococcus (GC 4547) (Staphylococcus sp.; strain GC 4547): 1 µg/mL (≈ 0.7 µM) | MIC Coagulase Negative Staphylococcus (GC 4548) (Staphylococcus sp.; strain GC 4548): 0.25 µg/mL (≈ 0.175 µM) | MIC Coagulase Negative Staphylococcus (GC 4549) (Staphylococcus sp.; strain GC 4549): 0.12 µg/mL (≈ 0.0839 µM) | MIC Coagulase Negative Staphylococcus (GC 4551) (Staphylococcus sp.; strain GC 4551): 0.5 µg/mL (≈ 0.35 µM) | MIC Coagulase Negative Staphylococcus (GC 6257) (Staphylococcus sp.; strain GC 6257): 0.25 µg/mL (≈ 0.175 µM) | MIC Enterococcus faecalis (ATCC 29212) (Enterococcus sp.; strain ATCC 29212): 2 µg/mL (≈ 1.4 µM) | MIC Enterococcus faecalis (GC 2242) (Enterococcus sp.; strain GC 2242): 2 µg/mL (≈ 1.4 µM) | MIC Enterococcus faecium (GC 2243) (Enterococcus sp.; strain GC 2243): 2 µg/mL (≈ 1.4 µM) | MIC Enterococcus faecalis (GC 2691) (Enterococcus sp.; strain GC 2691): 2 µg/mL (≈ 1.4 µM) | MIC Enterococcus faecalis (GC 3059) (Enterococcus sp.; strain GC 3059): 4 µg/mL (≈ 2.8 µM) | MIC Enterococcus faecalis (GC 4552) (Enterococcus sp.; strain GC 4552): 2 µg/mL (≈ 1.4 µM) | MIC Enterococcus faecalis (GC 4553) (Enterococcus sp.; strain GC 4553): 4 µg/mL (≈ 2.8 µM) | MIC Enterococcus faecalis (GC 4554) (Enterococcus sp.; strain GC 4554): 4 µg/mL (≈ 2.8 µM) | MIC Enterococcus faecium (GC 4556) (Enterococcus sp.; strain GC 4556): 2 µg/mL (≈ 1.4 µM) | MIC Enterococcus faecium (GC 4557) (Enterococcus sp.; strain GC 4557): 2 µg/mL (≈ 1.4 µM) | MIC Enterococcus avium (GC 4558) (Enterococcus sp.; strain GC 4558): 4 µg/mL (≈ 2.8 µM) | MIC Enterococcus faecalis (GC 6189) (Enterococcus sp.; strain GC 6189): 2 µg/mL (≈ 1.4 µM) | MIC Escherichia coli (ATCC 25922) (Escherichia coli; strain ATCC 25922): 32 µg/mL (≈ 22.4 µM) | MIC Escherichia coli (GC 4559) (Escherichia coli; strain GC 4559): 32 µg/mL (≈ 22.4 µM)
